Test system: PDE1
Experiment: In vitro HTRF PDE1 inhibition assay
Type: biochemical
Conditions: HTRF cGMP assay, 100 nM cyclic GMP, PDE (1A3, 1B or 1C) with calmodulin, 45 minutes at 37° C.; isoform of the tabulated values not stated
In short: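 Activities are given as IC50 bands (<1, 1-10, >10 μM) derived from a 665/615 nm time-resolved FRET readout after d2-cGMP/anti-cGMP cryptate detection. Enzymes PDE1A3, 1B or 1C plus calmodulin were incubated 45 min at 37 °C with 100 nM cGMP, 1% DMSO, CaCl2/MgCl2 Tris buffer pH 7.4.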

SMILES	IC50
Cc1ccc(CN2CCn3c(nn4c(C(C)C)ncc4c3=O)C2)cn1 [Compound I-188, 3-Isopropyl-7-((6-methylpyridin-3-yl)methyl)-8,9-dihydro-6H-imidazo[5,1-f]pyrazino[2,1-c][1,2,4]triazin-11(7H)-one]	1000 to 10000 nM
CC(C)n1ncc2c(=O)n3c(nc21)CN(Cc1cncnc1)CC3 [Compound I-190, 1-Isopropyl-8-(pyrimidin-5-ylmethyl)-6,7,8,9-tetrahydropyrazino[1,2-a]pyrazolo[3,4-d]pyrimidin-4(1H)-one]	> 10000 nM
O=c1c2cnn(C3CCCC3)c2nc2n1CCN(Cc1cncnc1)C2 [Compound I-191, 1-Cyclopentyl-8-(pyrimidin-5-ylmethyl)-6,7,8,9-tetrahydropyrazino[1,2-a]pyrazolo[3,4-d]pyrimidin-4(1H)-one]	1000 to 10000 nM
CC(C)c1ncc2c(=O)n3c(nn12)CN(Cc1cncnc1)CC3 [Compound I-192, 3-Isopropyl-7-(pyrimidin-5-ylmethyl)-8,9-dihydro-6H-imidazo[5,1-f]pyrazino[2,1-c][1,2,4]triazin-11(7H)-one]	> 10000 nM
O=c1c2cnc(C3CCCC3)n2nc2n1CCN(Cc1cncnc1)C2 [Compound I-193, 3-Cyclopentyl-7-(pyrimidin-5-ylmethyl)-8,9-dihydro-6H-imidazo[5,1-f]pyrazino[2,1-c][1,2,4]triazin-11(7H)-one]	1000 to 10000 nM
Cc1ncc(CN2CCn3c(nc4c(cnn4C(C)C)c3=O)C2)cn1 [Compound I-194, 1-Isopropyl-8-((2-methylpyrimidin-5-yl)methyl)-6,7,8,9-tetrahydropyrazino[1,2-a]pyrazolo[3,4-d]pyrimidin-4(1H)-one]	> 10000 nM
Cc1ncc(CN2CCn3c(nc4c(cnn4C4CCCC4)c3=O)C2)cn1 [Compound I-195, 1-Cyclopentyl-8-((2-methylpyrimidin-5-yl)methyl)-6,7,8,9-tetrahydropyrazino[1,2-a]pyrazolo[3,4-d]pyrimidin-4(1H)-one]	1000 to 10000 nM
Cc1ncc(CN2CCn3c(nn4c(C(C)C)ncc4c3=O)C2)cn1 [Compound I-196, 3-Isopropyl-7-((2-methylpyrimidin-5-yl)methyl)-8,9-dihydro-6H-imidazo[5,1-f]pyrazino[2,1-c][1,2,4]triazin-11(7H)-one]	1000 to 10000 nM
Cc1ncc(CN2CCn3c(nn4c(C5CCCC5)ncc4c3=O)C2)cn1 [Compound I-197, 3-Cyclopentyl-7-((2-methylpyrimidin-5-yl)methyl)-8,9-dihydro-6H-imidazo[5,1-f]pyrazino[2,1-c][1,2,4]triazin-11(7H)-one]	1000 to 10000 nM
Cc1cnc(CN2CCn3c(nc4c(cnn4C(C)C)c3=O)C2)nc1 [Compound I-198, 1-Isopropyl-8-((5-methylpyrimidin-2-yl)methyl)-6,7,8,9-tetrahydropyrazino[1,2-a]pyrazolo[3,4-d]pyrimidin-4(1H)-one]	> 10000 nM
Cc1cnc(CN2CCn3c(nc4c(cnn4C4CCCC4)c3=O)C2)nc1 [Compound I-199, 1-Cyclopentyl-8-((5-methylpyrimidin-2-yl)methyl)-6,7,8,9-tetrahydropyrazino[1,2-a]pyrazolo[3,4-d]pyrimidin-4(1H)-one]	1000 to 10000 nM
Cc1cnc(CN2CCn3c(nn4c(C(C)C)ncc4c3=O)C2)nc1 [Compound I-200]	1000 to 10000 nM
Cc1cnc(CN2CCn3c(nn4c(C5CCCC5)ncc4c3=O)C2)nc1 [Compound I-201]	1000 to 10000 nM
CC(C)n1ncc2c(=O)n3c(nc21)CN(Cc1cnccn1)CC3 [Compound I-202, 1-Isopropyl-8-(pyrazin-2-ylmethyl)-6,7,8,9-tetrahydropyrazino[1,2-a]pyrazolo[3,4-d]pyrimidin-4(1H)-one]	1000 to 10000 nM
O=c1c2cnn(C3CCCC3)c2nc2n1CCN(Cc1cnccn1)C2 [Compound I-203, 1-Cyclopentyl-8-(pyrazin-2-ylmethyl)-6,7,8,9-tetrahydropyrazino[1,2-a]pyrazolo[3,4-d]pyrimidin-4(1H)-one]	1000 to 10000 nM
CC(C)c1ncc2c(=O)n3c(nn12)CN(Cc1cnccn1)CC3 [Compound I-204, 3-Isopropyl-7-(pyrazin-2-ylmethyl)-8,9-dihydro-6H-imidazo[5,1-f]pyrazino[2,1-c][1,2,4]triazin-11(7H)-one]	1000 to 10000 nM

Further lines, results first:

IC50	SMILES
1000 to 10000 nM	CCCn1ncc2c(=O)n3c(nc21)CN(c1ccc(Cl)c(Cl)c1)CC3 [Compound I-168, 8-(3,4-Dichlorophenyl)-1-propyl-6,7,8,9-tetrahydropyrazino[1,2-a]pyrazolo[3,4-d]pyrimidin-4(1H)-one]
< 1000 nM	CC(C)n1ncc2c(=O)n3c(nc21)CN(Cc1ccc(Cl)c(Cl)c1)CC3 [Compound I-169, 8-(3,4-Dichlorobenzyl)-1-isopropyl-6,7,8,9-tetrahydropyrazino[1,2-a]pyrazolo[3,4-d]pyrimidin-4(1H)-one]
1000 to 10000 nM	CC(C)n1ncc2c(=O)n3c(nc21)CN(Cc1ccc2c(c1)OCO2)CC3 [Compound I-170, 8-(Benzo[d][1,3]dioxol-5-ylmethyl)-1-isopropyl-6,7,8,9-tetrahydropyrazino[1,2-a]pyrazolo[3,4-d]pyrimidin-4(1H)-one]
< 1000 nM	CC(C)n1ncc2c(=O)n3c(nc21)CN(c1ccc(Cl)c(Cl)c1)CC3 [Compound I-171, 8-(3,4-Dichlorophenyl)-1-isopropyl-6,7,8,9-tetrahydropyrazino[1,2-a]pyrazolo[3,4-d]pyrimidin-4(1H)-one]
< 1000 nM	CCOc1cccc(N2CCn3c(nn4c(C(C)C)ncc4c3=O)C2)c1 [Compound I-173, 7-(3-Ethoxyphenyl)-3-isopropyl-8,9-dihydro-6H-imidazo[5,1-f]pyrazino[2,1-c][1,2,4]triazin-11(7H)-one]
< 1000 nM	COc1cccc(N2CCn3c(nn4c(C(C)C)ncc4c3=O)C2)c1 [Compound I-174, 3-Isopropyl-7-(3-methoxyphenyl)-8,9-dihydro-6H-imidazo[5,1-f]pyrazino[2,1-c][1,2,4]triazin-11(7H)-one]
< 1000 nM	CC(C)c1ncc2c(=O)n3c(nn12)CN(c1ccc(Cl)cc1)CC3 [Compound I-175, 7-(4-Chlorophenyl)-3-isopropyl-8,9-dihydro-6H-imidazo[5,1-f]pyrazino[2,1-c][1,2,4]triazin-11(7H)-one]
< 1000 nM	CC(C)c1ncc2c(=O)n3c(nn12)CN(c1ccc(F)cc1)CC3 [Compound I-176, 7-(4-Fluorophenyl)-3-isopropyl-8,9-dihydro-6H-imidazo[5,1-f]pyrazino[2,1-c][1,2,4]triazin-11(7H)-one]
< 1000 nM	CCOc1cc(N2CCn3c(nn4c(C(C)C)ncc4c3=O)C2)ccc1F [Compound I-177, 7-(3-Ethoxy-4-fluorophenyl)-3-isopropyl-8,9-dihydro-6H-imidazo[5,1-f]pyrazino[2,1-c][1,2,4]triazin-11(7H)-one]
< 1000 nM	COc1ccc(CN2CCn3c(nn4c(C(C)C)ncc4c3=O)C2)cc1 [Compound I-178, 3-Isopropyl-7-(4-methoxybenzyl)-8,9-dihydro-6H-imidazo[5,1-f]pyrazino[2,1-c][1,2,4]triazin-11(7H)-one]
< 1000 nM	CC(C)c1ncc2c(=O)n3c(nn12)CN(Cc1ccc(Cl)cc1)CC3 [Compound I-179, 7-(4-Chlorobenzyl)-3-isopropyl-8,9-dihydro-6H-imidazo[5,1-f]pyrazino[2,1-c][1,2,4]triazin-11(7H)-one]
< 1000 nM	CCOc1cccc(N2CCn3c(nn4c(C5CCCC5)ncc4c3=O)C2)c1 [Compound I-180, 3-Cyclopentyl-7-(3-ethoxyphenyl)-8,9-dihydro-6H-imidazo[5,1-f]pyrazino[2,1-c][1,2,4]triazin-11(7H)-one]
< 1000 nM	COc1cccc(N2CCn3c(nn4c(C5CCCC5)ncc4c3=O)C2)c1 [Compound I-181, 3-Cyclopentyl-7-(3-methoxyphenyl)-8,9-dihydro-6H-imidazo[5,1-f]pyrazino[2,1-c][1,2,4]triazin-11(7H)-one]
< 1000 nM	O=c1c2cnc(C3CCCC3)n2nc2n1CCN(c1ccc(Cl)cc1)C2 [Compound I-182, 7-(4-Chlorophenyl)-3-cyclopentyl-8,9-dihydro-6H-imidazo[5,1-f]pyrazino[2,1-c][1,2,4]triazin-11(7H)-one]
< 1000 nM	O=c1c2cnc(C3CCCC3)n2nc2n1CCN(c1ccc(F)cc1)C2 [Compound I-183, 3-Cyclopentyl-7-(4-fluorophenyl)-8,9-dihydro-6H-imidazo[5,1-f]pyrazino[2,1-c][1,2,4]triazin-11(7H)-one]
< 1000 nM	CCOc1cc(N2CCn3c(nn4c(C5CCCC5)ncc4c3=O)C2)ccc1F [Compound I-184, 3-Cyclopentyl-7-(3-ethoxy-4-fluorophenyl)-8,9-dihydro-6H-imidazo[5,1-f]pyrazino[2,1-c][1,2,4]triazin-11(7H)-one]
1000 to 10000 nM	O=c1c2cnc(C3CCCC3)n2nc2n1CCN(c1ccncc1)C2 [Compound I-185, 3-Cyclopentyl-7-(pyridin-4-yl)-8,9-dihydro-6H-imidazo[5,1-f]pyrazino[2,1-c][1,2,4]triazin-11(7H)-one]
1000 to 10000 nM	Cc1ccc(CN2CCn3c(nc4c(cnn4C(C)C)c3=O)C2)cn1 [Compound I-186, 1-Isopropyl-8-((6-methylpyridin-3-yl)methyl)-6,7,8,9-tetrahydropyrazino[1,2-a]pyrazolo[3,4-d]pyrimidin-4(1H)-one]
< 1000 nM	Cc1ccc(CN2CCn3c(nc4c(cnn4C4CCCC4)c3=O)C2)cn1 [Compound I-187, 1-Cyclopentyl-8-((6-methylpyridin-3-yl)methyl)-6,7,8,9-tetrahydropyrazino[1,2-a]pyrazolo[3,4-d]pyrimidin-4(1H)-one]
< 1000 nM	Cc1ccc(CN2CCn3c(nn4c(C5CCCC5)ncc4c3=O)C2)cn1 [Compound I-189, 3-Cyclopentyl-7-((6-methylpyridin-3-yl)methyl)-8,9-dihydro-6H-imidazo[5,1-f]pyrazino[2,1-c][1,2,4]triazin-11(7H)-one]

From patent publication US20160083391A1, “TRICYCLIC PIPERAZINE DERIVATIVE” (Sunovion Pharmaceuticals Inc., priority 2014, published 2016)
